Patent US20240294541A1, “COMPOUNDS CONSTITUTING C20-MODIFIED SALINOMYCIN DERIVATIVES, A METHOD FOR OBTAINING THE SAME, A COMPOSITION CONTAINING THE SAME AND A USE OF SAID COMPOUNDS” (FILECLO SPOLKA Z OGRANICZONA ODPOWIEDZIALNOSCIA, priority 2021, published 2024)
Like-named read-outs stand apart in the source and are kept apart here.

Legend:
Assay type in all cases: cell-based
A375 (human melanoma) = test: In vitro cytotoxicity, SRB assay, A375; conditions: for IC50: Homo sapiens; for A375 SI: selectivity coefficient vs normal BALB/3T3 cells
[1] = test system: KG-1 (human acute myeloid leukaemia); test: In vitro cytotoxicity, MTT assay, KG-1; conditions: for IC50: Homo sapiens, 72 h with compound, MTT, n/a = non-active compound; for KG-1 SI: selectivity coefficient vs normal BALB/3T3 cells
Hs294T (human melanoma) = test: cells; conditions: for IC50: Hs 294T; for Hs294T SI: selectivity coefficient vs normal BALB/3T3 cells
[2] = test system: PLC/PRF/5 (human liver cancer); test: cells; conditions: for PLC/PRF/5 SI: selectivity coefficient vs normal BALB/3T3 cells
[3] = test system: MIA PaCa-2 (human pancreatic cancer); test: cells; conditions: for MIA PaCa-2 SI: selectivity coefficient vs normal BALB/3T3 cells
[4] = test system: A2780 (human ovarian cancer); test: In vitro cytotoxicity, SRB assay, A2780; conditions: for IC50: Homo sapiens; for A2780 SI: selectivity coefficient vs normal BALB/3T3 cells
[5] = test system: BALB/3T3 (normal mouse fibroblasts); test: In vitro cytotoxicity, SRB assay, normal BALB/3T3 fibroblasts; conditions: Mus musculus, BALB/3T3; normal cells; 72 h with compound, SRB; n/a = non-active compound; read-out: BALB/3T3 IC50
[6] = test system: A2780Cis (cisplatin-resistant human ovarian cancer); test: In vitro cytotoxicity, SRB assay, A2780Cis; conditions: for IC50: Homo sapiens, A2780cis, 72 h, read-out: A2780Cis IC50 (nM)
[7] = test system: PFSK-1 (malignant primitive neuroectodermal tumour); test: In vitro cytotoxicity, SRB assay, PFSK-1; conditions: for IC50: Homo sapiens; for PFSK-1 SI: selectivity coefficient vs normal BALB/3T3 cells
[8] = test system: NCI-H23 (human lung cancer); test: In vitro cytotoxicity, SRB assay, NCI-H23; conditions: for IC50: Homo sapiens; for NCI-H23 SI: selectivity coefficient vs normal BALB/3T3 cells
[9] = test system: SNU-16 (human gastric cancer); test: cells; conditions: for SNU-16 SI: selectivity coefficient vs normal BALB/3T3 cells
[10] = test system: NCI-H358 (human lung cancer); test: cells; conditions: Table 4; NCI-H358 human lung cancer cells; read-out: IC50 (nM) NCI-H358
[11] = A-375, 72 h with compound, SRB, n/a = non-active compound, read-out: A375 IC50
[12] = Homo sapiens, 72 h with compound, SRB, n/a = non-active compound, read-out: Hs294T IC50
[13] = Homo sapiens, PLC-PRF-5, 72 h with compound, SRB, n/a = non-active compound, read-out: PLC/PRF/5 IC50
[14] = Homo sapiens, MIA PaCa-2, 72 h with compound, SRB, n/a = non-active compound, read-out: MIA PaCa-2 IC50
[15] = A2780, 72 h with compound, SRB, n/a = non-active compound, read-out: A2780 IC50
[16] = PFSK-1, 72 h with compound, SRB, n/a = non-active compound, read-out: PFSK-1 IC50
[17] = NCI-H23, 72 h with compound, SRB, n/a = non-active compound, read-out: NCI-H23 IC50
[18] = Homo sapiens, SNU-16, 72 h with compound, MTT, n/a = non-active compound, read-out: SNU-16 IC50
[19] = A-375, 72 h, read-out: A375 IC50 (nM)
[20] = A2780, 72 h, read-out: A2780 IC50 (nM)
[21] = PFSK-1, 72 h, read-out: PFSK-1 IC50 (nM)
[22] = NCI-H23, 72 h, read-out: NCI-H23 IC50 (nM)
[23] = Table 4, Hs294T human melanoma cells, read-out: IC50 (nM) Hs294T
[24] = Table 4, PLC/PRF/5 human liver cancer cells, read-out: IC50 (nM) PLC/PRF/5
[25] = Table 4, MIA PaCa-2 human pancreatic cancer cells, read-out: IC50 (nM) MIA PaCa-2
[26] = Table 4, SNU-16 human gastric cancer cells, read-out: IC50 (nM) SNU-16

| Compound | IC50 (A375 (human melanoma); [11]) [nM] | A375 SI (A375 (human melanoma)) | IC50 [1] [nM] | KG-1 SI [1] | IC50 (Hs294T (human melanoma); [12]) [nM] | Hs294T SI (Hs294T (human melanoma)) | IC50 [2, 13] [nM] | PLC/PRF/5 SI [2] | IC50 [3, 14] [nM] | MIA PaCa-2 SI [3] | IC50 [4, 15] [nM] | A2780 SI [4] | IC50 [5] [nM] | A2780Cis RI [6] | A2780Cis SI [6] | IC50 [6] [nM] | PFSK-1 SI [7] | NCI-H23 SI [8] | IC50 [9, 18] [nM] | SNU-16 SI [9] | further results |
| --- | --- | --- | --- | --- | --- | --- | --- | --- | --- | --- | --- | --- | --- | --- | --- | --- | --- | --- | --- | --- | --- |
| CC[C@@H](C(=O)[C@@H](C)[C@@H](O)[C@H](C)[C@@H]1O[C@@H]([C@@H](CC)C(=O)O)CC[C@@H]1C)[C@H]1O[C@]2(C=C[C@@H](NC(=S)Nc3ccc(Cl)cc3)[C@]3(CC[C@@](C)([C@H]4CC[C@](O)(CC)[C@H](C)O4)O3)O2)[C@H](C)C[C@@H]1C [FLC-00378-1] | 36.6 | 0.3 | 19.1 | 0.5 | 29.4 | 0.3 | 2.58 | 3.9 | 18.4 | 0.5 | 0.55 | 18.3 | 10.1 | 0.3 | 57.0 | 0.18 | 3.1 | 2.5 | 3.21 | 3.2 | IC50 [7, 16]: 3.28 nM; IC50 [8, 17]: 4.12 nM |
| CC[C@@H](C(=O)[C@@H](C)[C@@H](O)[C@H](C)[C@@H]1O[C@@H]([C@@H](CC)C(=O)O)CC[C@@H]1C)[C@H]1O[C@]2(C=C[C@@H](NC(=S)Nc3ccc(Cl)c(Cl)c3)[C@]3(CC[C@@](C)([C@H]4CC[C@](O)(CC)[C@H](C)O4)O3)O2)[C@H](C)C[C@@H]1C [FLC-00379-1] |  | 1.4 | 39 | 2.5 | 108 | 0.9 | 22.1 | 4.5 | 52.6 | 1.9 |  | 22.8 | 98.2 | 0.2 | 121.2 | 0.81 | 14.9 | 11.0 | 18 | 5.5 | IC50 (A375 (human melanoma); [19]): 68.1 nM; IC50 [4, 20]: 4.31 nM; IC50 [7, 21]: 6.6 nM; IC50 [8, 22]: 8.96 nM |
| CC[C@@H](C(=O)[C@@H](C)[C@@H](O)[C@H](C)[C@@H]1O[C@@H]([C@@H](CC)C(=O)O)CC[C@@H]1C)[C@H]1O[C@]2(C=C[C@@H](NC(=S)Nc3cc(Cl)cc(Cl)c3)[C@]3(CC[C@@](C)([C@H]4CC[C@](O)(CC)[C@H](C)O4)O3)O2)[C@H](C)C[C@@H]1C [FLC-00380-1] |  | 1.0 | 6.44 | 29.6 | 178 | 1.1 | 19.9 | 9.6 | 48.2 | 4.0 |  | 85.7 | 191 | 0.2 | 483.3 | 0.4 | 31.6 | 36.6 | 6.6 | 28.9 | IC50 (A375 (human melanoma); [19]): 195 nM; IC50 [4, 20]: 2.23 nM; IC50 [7, 21]: 6.05 nM; IC50 [8, 22]: 5.22 nM |
| CC[C@@H](C(=O)[C@@H](C)[C@@H](O)[C@H](C)[C@@H]1O[C@@H]([C@@H](CC)C(=O)O)CC[C@@H]1C)[C@H]1O[C@]2(C=C[C@@H](NC(=O)Nc3ccccc3C(F)(F)F)[C@]3(CC[C@@](C)([C@H]4CC[C@](O)(CC)[C@H](C)O4)O3)O2)[C@H](C)C[C@@H]1C [FLC-00381-1] | 189 | 0.8 | 36.4 | 4.4 | 138 | 1.2 | 62.4 | 2.5 | 69.6 | 2.3 | 13.4 | 11.9 | 159 | 0.5 | 21.7 | 7.34 | 3.2 | 3.4 | 63.8 | 2.5 | IC50 [7, 16]: 50.4 nM; IC50 [8, 17]: 46.3 nM |
| CC[C@@H](C(=O)[C@@H](C)[C@@H](O)[C@H](C)[C@@H]1O[C@@H]([C@@H](CC)C(=O)O)CC[C@@H]1C)[C@H]1O[C@]2(C=C[C@@H](NC(=S)Nc3ccc(C)cc3)[C@]3(CC[C@@](C)([C@H]4CC[C@](O)(CC)[C@H](C)O4)O3)O2)[C@H](C)C[C@@H]1C [FLC-00382-1] | 44.2 | 1.2 | 9.84 | 5.2 | 61.1 | 0.8 | 5.15 | 10.0 | 36.5 | 1.4 | 0.84 | 61.4 | 51.6 | 0.4 | 157.5 | 0.33 | 13.8 | 13.2 | 5.15 | 10.0 | IC50 [7, 16]: 3.75 nM; IC50 [8, 17]: 3.92 nM |
| CC[C@@H](C(=O)[C@@H](C)[C@@H](O)[C@H](C)[C@@H]1O[C@@H]([C@@H](CC)C(=O)O)CC[C@@H]1C)[C@H]1O[C@]2(C=C[C@@H](NC(=O)NCc3ccc(F)cc3)[C@]3(CC[C@@](C)([C@H]4CC[C@](O)(CC)[C@H](C)O4)O3)O2)[C@H](C)C[C@@H]1C [FLC-00383-1] | 205 | 0.8 | 30.6 | 5.7 | 244 | 0.7 | 3.35 | 51.7 | 47.7 | 3.6 | 6.38 | 27.2 | 173 | 0.7 | 39.0 | 4.45 | 6.7 | 7.0 | 20.3 | 8.6 | IC50 [7, 16]: 26 nM; IC50 [8, 17]: 24.6 nM |
| CC[C@@H](C(=O)[C@@H](C)[C@@H](O)[C@H](C)[C@@H]1O[C@@H]([C@@H](CC)C(=O)O)CC[C@@H]1C)[C@H]1O[C@]2(C=C[C@@H](NC(=O)NC3CCCCC3)[C@]3(CC[C@@](C)([C@H]4CC[C@](O)(CC)[C@H](C)O4)O3)O2)[C@H](C)C[C@@H]1C [FLC-00384-1] | 120 | 0.9 | 19.7 | 5.3 | 141 | 0.7 | 28.2 | 3.7 | 62.6 | 1.7 | 4.04 | 25.9 | 105 | 0.3 | 80.0 | 1.31 | 10.5 | 3.8 | 21.1 | 5.0 | IC50 [7, 16]: 10 nM; IC50 [8, 17]: 27.7 nM |
| CC[C@@H](C(=O)[C@@H](C)[C@@H](O)[C@H](C)[C@@H]1O[C@@H]([C@@H](CC)C(=O)O)CC[C@@H]1C)[C@H]1O[C@]2(C=C[C@@H](NC(=S)Nc3cccc(C(F)(F)F)c3)[C@]3(CC[C@@](C)([C@H]4CC[C@](O)(CC)[C@H](C)O4)O3)O2)[C@H](C)C[C@@H]1C [FLC-00386-1] |  |  |  |  |  |  |  |  |  |  |  |  |  |  |  |  |  |  |  |  | IC50 (Hs294T (human melanoma); [23]): 147 nM; IC50 [2, 24]: 10.2 nM; IC50 [3, 25]: 11.3 nM; IC50 [10]: 51.3 nM; IC50 [9, 26]: 10.1 nM |
| CC[C@@H](C(=O)[C@@H](C)[C@@H](O)[C@H](C)[C@@H]1O[C@@H]([C@@H](CC)C(=O)O)CC[C@@H]1C)[C@H]1O[C@]2(C=C[C@@H](NC(=S)NC(C)C)[C@]3(CC[C@@](C)([C@H]4CC[C@](O)(CC)[C@H](C)O4)O3)O2)[C@H](C)C[C@@H]1C [FLC-00387-1] |  |  |  |  |  |  |  |  |  |  |  |  |  |  |  |  |  |  |  |  | IC50 (Hs294T (human melanoma); [23]): 162 nM; IC50 [2, 24]: 0.7 nM; IC50 [3, 25]: 9.71 nM; IC50 [10]: 44.4 nM; IC50 [9, 26]: 10.2 nM |
| C=CCOC(=O)N[C@@H]1C=C[C@]2(O[C@H]([C@@H](CC)C(=O)[C@@H](C)[C@@H](O)[C@H](C)[C@@H]3O[C@@H]([C@@H](CC)C(=O)O)CC[C@@H]3C)[C@@H](C)C[C@H]2C)O[C@@]12CC[C@@](C)([C@H]1CC[C@](O)(CC)[C@H](C)O1)O2 [FLC-00425-1•Na] |  |  |  |  |  |  |  |  |  |  |  |  |  |  |  |  |  |  |  |  | IC50 (Hs294T (human melanoma); [23]): 362 nM; IC50 [2, 24]: 26.5 nM; IC50 [3, 25]: 269 nM; IC50 [10]: 234 nM; IC50 [9, 26]: 420 nM |
